# Article PMC12073189, “Synthesis and Evaluation of a Novel Zuranolone Analog with High GABAA Receptor PAM Activity and Excellent Pharmacokinetic Profiles” (Molecules, 2025)
# Like-named read-outs stand apart in the source and are kept apart here.
# Assays:
# α4β3δ GABAA receptor = target: T1, α4β3δ GABAA receptor (Homo sapiens, UniProt P28472+P48169); experiment: Whole-cell electrophysiology of GABA-evoked currents, CHO cells; type: cell-based
# T1 construct: expressed in transfected cells; host or cells: CHO cells (transient expression)
# T1 sequence (P48169 36-554): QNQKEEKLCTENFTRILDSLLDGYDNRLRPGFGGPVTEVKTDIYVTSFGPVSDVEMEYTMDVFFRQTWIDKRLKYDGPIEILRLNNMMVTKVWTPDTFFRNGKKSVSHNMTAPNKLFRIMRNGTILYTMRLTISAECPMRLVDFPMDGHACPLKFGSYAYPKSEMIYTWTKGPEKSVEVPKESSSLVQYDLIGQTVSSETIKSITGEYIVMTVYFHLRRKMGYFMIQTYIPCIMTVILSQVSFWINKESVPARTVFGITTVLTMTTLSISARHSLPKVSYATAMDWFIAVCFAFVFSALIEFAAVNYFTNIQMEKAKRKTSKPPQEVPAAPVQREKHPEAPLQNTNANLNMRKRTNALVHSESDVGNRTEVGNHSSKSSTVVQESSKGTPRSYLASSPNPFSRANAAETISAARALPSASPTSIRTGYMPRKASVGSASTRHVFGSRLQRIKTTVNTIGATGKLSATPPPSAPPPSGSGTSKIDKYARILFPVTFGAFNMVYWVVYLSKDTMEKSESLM
# T1 sequence (P28472 26-473): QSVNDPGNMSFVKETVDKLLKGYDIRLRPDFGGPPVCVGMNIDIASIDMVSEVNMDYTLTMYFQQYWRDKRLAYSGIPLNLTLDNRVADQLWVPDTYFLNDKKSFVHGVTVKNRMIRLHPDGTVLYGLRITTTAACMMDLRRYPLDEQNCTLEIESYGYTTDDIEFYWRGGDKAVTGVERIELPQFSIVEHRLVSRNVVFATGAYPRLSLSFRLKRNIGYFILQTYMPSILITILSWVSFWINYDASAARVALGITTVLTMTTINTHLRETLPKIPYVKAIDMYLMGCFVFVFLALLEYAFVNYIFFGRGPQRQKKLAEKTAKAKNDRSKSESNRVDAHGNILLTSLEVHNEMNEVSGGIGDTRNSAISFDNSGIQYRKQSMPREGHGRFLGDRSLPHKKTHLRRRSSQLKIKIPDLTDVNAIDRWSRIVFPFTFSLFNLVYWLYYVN
# T1 sequence (O14764 25-452 partner): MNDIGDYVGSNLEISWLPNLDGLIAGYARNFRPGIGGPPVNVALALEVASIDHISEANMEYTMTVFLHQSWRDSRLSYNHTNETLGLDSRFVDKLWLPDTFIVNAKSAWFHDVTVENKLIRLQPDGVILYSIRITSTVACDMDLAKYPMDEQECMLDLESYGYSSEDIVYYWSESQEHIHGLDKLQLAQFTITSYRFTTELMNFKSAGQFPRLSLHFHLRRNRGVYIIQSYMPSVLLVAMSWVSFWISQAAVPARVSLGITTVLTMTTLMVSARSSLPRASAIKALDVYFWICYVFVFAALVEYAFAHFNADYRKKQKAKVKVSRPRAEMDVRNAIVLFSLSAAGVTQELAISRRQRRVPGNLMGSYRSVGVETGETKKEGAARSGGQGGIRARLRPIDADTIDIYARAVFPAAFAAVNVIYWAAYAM
# Protocol: The α1β2γ2 and α4β3δ GABAA receptor subtypes, representing synaptic and extrasynaptic subunit compositions in neurons, are widely utilized for screening new NAS drugs. In this study, a preliminary SAR study was conducted on a series of Zuranolone analogs using the LogP values predicted by ADMETlab3.0 software, recombinant human GABAA receptor cell lines, and in vitro liver microsome stability assays. The results are summarized in Table 1, Table 2, and Table 3, respectively.
# The effects of Zuranolone and synthetic analogs on GABA-evoked currents were assessed in LTK cells stably expressing α1β2γ2 GABAA receptor subunits (n = 3) or CHO cells transiently expressing α4β3δ receptors (n = 3). Whole-cell mode recordings were conducted using the HEKA EPC-10 amplifier and analyzed with PatchMaster software (version 2x90, HEKA Elektronik, Lambrecht, Germany). High-throughput whole-cell recordings were performed using the Q-Patch method from Sophion. Test substances were dissolved in DMSO (dimethyl sulfoxide) to prepare 10 mmol/L stock solutions, then diluted with perfusion bath solution to concentrations ranging from 0.01 to 10 μmol/L. In this experiment, the effects of Zuranolone and its synthetic analogs on GABA-induced currents were examined in the presence of a submaximal agonist concentration at 1 μmol/L GABA (EC20). Cells were pre-incubated with increasing doses of test substances for 30 s, followed by 2 s of GABA stimulation, and currents were recorded. The maximum efficacy (Emax) of the GABAA receptor is expressed with the current induced by 1 μmol/L GABA taken as 100%, and the percentage after treatment with the test compound is calculated. The EC50 values are determined by fitting the three concentration–response curves recorded from three cells.
# CYP1A2 = target: T2, CYP1A2 (Homo sapiens, UniProt P05177); experiment: Human liver CYP inhibition assay (cocktail, pooled HLM); type: in vitro ADME
# T2 construct: tissue XenoTech; host or cells: pooled human liver microsomes
# T2 sequence (P05177 1-516): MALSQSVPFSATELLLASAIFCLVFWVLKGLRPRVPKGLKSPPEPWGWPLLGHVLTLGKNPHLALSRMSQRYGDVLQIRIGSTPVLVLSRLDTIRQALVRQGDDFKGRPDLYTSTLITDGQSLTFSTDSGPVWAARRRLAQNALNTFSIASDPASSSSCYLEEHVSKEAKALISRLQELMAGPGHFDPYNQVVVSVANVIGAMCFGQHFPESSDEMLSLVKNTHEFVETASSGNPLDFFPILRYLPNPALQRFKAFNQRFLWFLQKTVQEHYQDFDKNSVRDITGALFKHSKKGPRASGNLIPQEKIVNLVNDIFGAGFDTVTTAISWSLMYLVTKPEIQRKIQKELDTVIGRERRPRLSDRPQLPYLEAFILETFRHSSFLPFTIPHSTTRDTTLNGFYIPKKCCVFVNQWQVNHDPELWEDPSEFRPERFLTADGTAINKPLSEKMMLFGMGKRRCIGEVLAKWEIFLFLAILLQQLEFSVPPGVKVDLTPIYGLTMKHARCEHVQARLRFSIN
# Protocol: (§1) The main materials used in this experiment were sourced as follows: Zuranolone from BEIWANTABIO Co., Ltd. (Shanghai, China); liver microsomes (rat and human) and CYP isoenzymes (CYP1A2, CYP2C8, CYP2D6, CYP3A4) from XenoTech (Tewksbury, MA, USA); LTK cells from the China Center for Type Culture Collection (CCTCC, Wuhan, China); and CHO cells from the National Certified Cell Bank (Shanghai, China).
# (§2) The IC50 values of S9 and Zuranolone on CYP isoenzymes (1A2, 2C8, 2D6, 3A4) were determined in pooled HLM using a cocktail approach, as previously reported.
# CYP2D6 = target: T3, CYP2D6 (Homo sapiens, UniProt P10635); experiment: as above; type: in vitro ADME
# T3 construct: tissue XenoTech; host or cells: pooled human liver microsomes
# T3 sequence (P10635 whole entry): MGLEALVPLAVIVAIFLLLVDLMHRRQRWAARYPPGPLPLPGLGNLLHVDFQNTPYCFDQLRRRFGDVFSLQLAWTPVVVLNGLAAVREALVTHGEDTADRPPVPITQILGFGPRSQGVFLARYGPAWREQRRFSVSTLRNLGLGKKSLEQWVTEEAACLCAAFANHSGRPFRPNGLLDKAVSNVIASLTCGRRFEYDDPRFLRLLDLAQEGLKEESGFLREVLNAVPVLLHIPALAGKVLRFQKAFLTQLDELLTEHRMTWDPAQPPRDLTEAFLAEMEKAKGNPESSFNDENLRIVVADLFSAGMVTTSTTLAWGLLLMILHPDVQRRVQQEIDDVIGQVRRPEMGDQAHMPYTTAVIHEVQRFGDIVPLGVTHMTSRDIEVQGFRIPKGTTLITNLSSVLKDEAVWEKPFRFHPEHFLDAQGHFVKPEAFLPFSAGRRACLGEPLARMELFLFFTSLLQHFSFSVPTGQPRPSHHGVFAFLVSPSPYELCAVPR
# Protocol: as §1, §2
# CYP3A4 = target: T4, CYP3A4 (Homo sapiens, UniProt P08684); experiment: as above; type: in vitro ADME
# T4 construct: tissue XenoTech; host or cells: pooled human liver microsomes
# T4 sequence (P08684 whole entry): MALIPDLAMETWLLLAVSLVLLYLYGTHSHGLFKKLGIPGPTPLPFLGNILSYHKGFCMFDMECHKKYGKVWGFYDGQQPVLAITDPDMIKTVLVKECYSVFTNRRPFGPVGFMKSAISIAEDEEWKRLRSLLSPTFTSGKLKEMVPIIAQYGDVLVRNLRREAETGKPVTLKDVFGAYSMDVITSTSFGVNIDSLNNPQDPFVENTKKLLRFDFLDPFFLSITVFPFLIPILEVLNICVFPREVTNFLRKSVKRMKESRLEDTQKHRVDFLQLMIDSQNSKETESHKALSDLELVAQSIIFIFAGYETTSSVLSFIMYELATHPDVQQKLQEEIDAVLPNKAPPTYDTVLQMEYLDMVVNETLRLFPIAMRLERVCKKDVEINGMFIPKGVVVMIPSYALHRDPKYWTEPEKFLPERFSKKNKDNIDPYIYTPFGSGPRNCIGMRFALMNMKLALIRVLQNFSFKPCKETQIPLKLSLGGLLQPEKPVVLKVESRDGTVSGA
# Protocol: as §1, §2
# [1] = Liver microsome metabolic stability (HLM); type: in vitro ADME, human; design: microsomal CLint at 1 μmol/L: unit not given here; conditions: for half-life at 1 μmol/L: read-out: HLM T1/2
# Protocol: We quantified S1–S15 and Zuranolone using a UPLC-MS/MS (Agilent 1290 Infinity II UHPLC (Agilent Technologies, Santa Clara, CA, USA) coupled with a QTRAP 5500 MS/MS (ESI source) (SCIEX, Redwood City, CA, USA for MS/MS). The method assessed the content level of S9 and Zuranolone in microsome metabolism and in rat brain tissue and plasma. An ACQUITY UPLC Peptide BEH C18 column (Waters; 50 × 2.1 mm, 1.7 μm; 60 °C; Waters Corporation, Milford, MA, USA) was used with a mobile phase of 0.02% propionic acid in water (A) and acetonitrile (B). The gradient elution of the mobile phase B is carried out as follows: it is 10% from 0 to 0.5 min, 90% from 0.8 to 2.5 min, and 10% from 2.8 to 3.5 min, with a flow rate of 0.40 mL/min. Quantitative analysis was performed on a QTRAP 5500 MS (SCIEX, Redwood City, CA, USA) in positive ionization mode with MRM (multiple reaction monitoring), using progesterone-d9 as the internal standard. MRM transitions and parameters were optimized for each analyte, with collision energies of 25 V (S1–S15), 23 V (Zuranolone), and 30 V (IS), and declustering potentials of 80 V (S1–S15), 90 V (Zuranolone), and 180 V (IS). Other conditions were as follows: curtain gas 10 psi, collision gas ‘medium’, ion spray voltage 5500 V, temperature 500 °C, and ionization source gases 1 and 2 at 50 psi.
# To evaluate the metabolic stability of compounds S1–S15 and Zuranolone in RLM and HLM, we designed the following in vitro liver microsome metabolism assay protocol. In a 1.5 mL centrifuge tube, sequentially add 173 μL of PBS (0.1 M, pH 7.4), 5 μL of liver microsomes (20 mg/mL), and 2 μL of the test compound (100 μmol/L). After thorough mixing, pre-incubate at 37 °C for 10 min. Subsequently, add 20 μL of NADPH to initiate the metabolism, with a parallel control without NADPH, to validate the background signal. Samples were collected at 0, 5, 10, 20, 30, and 60 min post-reaction initiation. At each designated time point, we quenched the reaction with ice-cold acetonitrile (600 μL). After centrifuging the mixture, we analyzed the supernatant using UPLC-MS/MS. For data analysis, the compound concentration at 0 min was set as 100%, with concentrations at subsequent time points expressed as residual percentages relative to the initial value, and the in vitro half-life (T1/2) and intrinsic clearance (CLint) were calculated.
smiles,measurement,setting,value
C[C@@]1(O)CC[C@H]2[C@H](CC[C@@H]3[C@@H]2CC[C@]2(C)[C@@H](C(=O)Cn4cnn(-c5ccnc(OCC(F)(F)F)c5)c4=O)CC[C@@H]32)C1 [S9],EC50,"α4β3δ GABAA receptor; CHO cells, 1 μmol/L GABA (EC20), n = 3, read-out: α4β3δ EC50",0.034 ± 0.01 µM
same,Emax,"α4β3δ GABAA receptor; CHO cells, current induced by 1 μmol/L GABA = 100%, n = 3",967 ± 118%
same,efficacy as % of that of Zuranolone,α4β3δ GABAA receptor; extrasynaptic GABAA receptors,71%
same,potency as % of that of Zuranolone,α4β3δ GABAA receptor; extrasynaptic GABAA receptors,270%
same,IC50,"CYP1A2; human liver CYP isoenzymes, pooled HLM, read-out: CYP IC50: 1A2",> 30 µM
same,IC50,"CYP2D6; human liver CYP isoenzymes, pooled HLM, read-out: CYP IC50: 2D6",> 30 µM
same,IC50,"CYP3A4; human liver CYP isoenzymes, pooled HLM, read-out: CYP IC50: 3A4",> 30 µM
same,fold longer T1/2 than Zuranolone,[1]; HLM,1.2 fold
same,fold lower CLint than Zuranolone,[1]; HLM,1.2 fold
same,microsomal CLint at 1 μmol/L,"[1]; pH 7.4, human liver microsomes",9000
same,half-life at 1 μmol/L,"[1]; pH 7.4, human liver microsomes",2.57 h
C[C@@]1(O)CC[C@H]2[C@H](CC[C@@H]3[C@@H]2CC[C@]2(C)[C@@H](C(=O)Cn4cc(C#N)cn4)CC[C@@H]32)C1 [Zuranolone],EC50,α4β3δ GABAA receptor,0.093 ± 0.01 µM
same,IC50,CYP1A2,> 30 µM
same,IC50,CYP2D6,> 30 µM
same,IC50,CYP3A4,> 30 µM
same,half-life at 1 μmol/L,"[1]; pH 7.4, human liver microsomes",2.07 h
